Assay results reported in ChEMBL document CHEMBL3045905, “Synthesis and evaluation of curcumin analogues as cytotoxic agents” (Med Chem Res, 2010).
The source made the active and inactive calls. The rule behind the calls is not given here.

Experiments:
[1] = Cytotoxicity against Mus musculus (mouse) EAC assessed as cell viability by trypan blue exclusion assay; assay type: functional, Ehrlich
Ehrlich [2] = assay: Antitumor activity against Mus musculus (mouse) EAC xenografted in Mus musculus (mouse) assessed as normalization of WBC level at 20 mg/kg/day, ip measured on day 14 relative to untreated control; assay type: functional, organism-based
[3] = Antitumor activity against Mus musculus (mouse) EAC xenografted in Mus musculus (mouse) assessed as increase in mean survival time at 20 mg/kg/day, ip after 9 days (reference value: 9.1 days); assay type: functional, Ehrlich; conditions: route intraperitoneal
[4] = Antitumor activity against Mus musculus (mouse) EAC xenografted in Mus musculus (mouse) assessed as decrease in tumor number at 20 mg/kg/day, ip measured on day 14 by Giemsa staining (reference value: 220 million/ml); assay type: functional, Ehrlich; conditions: route intraperitoneal
[5] = Antitumor activity against Mus musculus (mouse) EAC xenografted in Mus musculus (mouse) assessed as normalization of hematocrit at 20 mg/kg/day, ip measured on day 14 (reference value: 35.5%); assay type: functional, Ehrlich; conditions: route intraperitoneal
[6] = Antitumor activity against Mus musculus (mouse) EAC xenografted in Mus musculus (mouse) assessed as normalization of hemoglobin level at 20 mg/kg/day, ip measured on day 14 (reference value: 8.7 g/dl); assay type: functional, Ehrlich; conditions: route intraperitoneal
Mus musculus [7] = assay: Toxicity in Mus musculus Swiss Albino (mouse) xenografted with Mus musculus (mouse) EAC assessed as increase in body weight at 20 mg/kg/day, ip measured on day 14; assay type: organism-based; parameters: route intraperitoneal; conditions: in vivo
[8] = Antitumor activity against Mus musculus (mouse) EAC xenografted in Mus musculus (mouse) assessed as normalization of hemoglobin level at 50 to 250 mg/kg/day, ip measured on day 14 (reference value: 8.7 g/dl); assay type: functional, Ehrlich; conditions: route intraperitoneal
[9] = Antitumor activity against Mus musculus (mouse) EAC xenografted in Mus musculus (mouse) assessed as normalization of hematocrit at 50 to 250 mg/kg/day, ip measured on day 14 (reference value: 35.5%); assay type: functional, Ehrlich; conditions: route intraperitoneal
[10] = Antitumor activity against Mus musculus (mouse) EAC xenografted in Mus musculus (mouse) assessed as decrease in tumor number at 50 to 250 mg/kg/day, ip measured on day 14 by Giemsa staining (reference value: 220 million/ml); assay type: functional, Ehrlich; conditions: route intraperitoneal
Ehrlich [11] = assay: Antitumor activity against Mus musculus (mouse) EAC xenografted in Mus musculus (mouse) assessed as normalization of WBC level at 50 to 250 mg/kg/day, ip measured on day 14 relative to untreated control; assay type: functional, organism-based
[12] = Antitumor activity against Mus musculus (mouse) EAC xenografted in Mus musculus (mouse) assessed as increase in mean survival time at 50 to 250 mg/kg/day, ip after 9 days (reference value: 9.1 days); assay type: functional, Ehrlich; conditions: route intraperitoneal
Mus musculus [13] = assay: Toxicity in Mus musculus Swiss Albino (mouse) xenografted with Mus musculus (mouse) EAC assessed as increase in body weight at 50 to 250 mg/kg/day, ip measured on day 14; assay type: organism-based; parameters: route intraperitoneal; conditions: in vivo

COc1cc(/C=C/c2cc(/C=C/c3ccc(O)c(OC)c3)n(NN)n2)ccc1O showed an ED25 [1] of 22.2 mM.

COc1cc(/C=C/C(=O)CC(=O)/C=C/c2ccc(O)c(OC)c2)ccc1O [CURCUMIN] gave an ED10 [1] of 3.4 mM and an ED25 [1] of 4.8 mM.

For O=c1[nH]cc(F)c(=O)[nH]1 [FLUOROURACIL], the Activity (Ehrlich [2]) was “Active”, the MST [3] was 16.7 days and the Activity [4] was 123 ×10⁶ /ml. The Activity [5] was 42.3%, the Activity [6] was 10 g/dL and the Activity (Mus musculus [7]) was “Toxic”.

For COc1cc(C2CC(C(=NNc3ccc([N+](=O)[O-])cc3)C3=NC(=S)NC(c4ccc(O)c(OC)c4)C3)=NC(=S)N2)ccc1O (stereo not drawn), the ED25 [1] was 4.8 mM.

For COc1cc(/C=C/c2cc(/C=C/c3ccc(O)c(OC)c3)[nH]n2)ccc1O [CURCUMIN PYRAZOLE], the Activity [8] was 9.4 g/dL, the Activity [9] was 41% and the Activity [10] was 169.6 ×10⁶ /ml. For the same compound, the ED25 [1] was 66.7 mM, the Activity (Ehrlich [11]) was “Active” and the MST [12] was 14.6 days. The Activity (Mus musculus [13]) was “Toxic”.

Work on COc1cc(/C=C/C(=O)C(=NNc2ccc(Cl)cc2)C(=O)/C=C/c2ccc(O)c(OC)c2)ccc1O yielded an ED25 [1] of 3.2 mM.

In the case of COc1cc(/C=C/C(=O)/C(=N\Nc2ccc([N+](=O)[O-])cc2)C(=O)C(Br)C(Br)c2ccc(O)c(OC)c2)ccc1O (stereo not drawn), the ED25 [1] is reported as 3.2 mM.

For COc1cc(C2CC(C(=NNc3ccc([N+](=O)[O-])cc3)C3=NNC(c4ccc(O)c(OC)c4)C3)=NN2)ccc1O (stereo not drawn), the ED25 [1] was 38.9 mM.

COc1cc(/C=C/C(=O)/C(=N\Nc2ccc([N+](=O)[O-])cc2)C2=NC(=S)NC(c3ccc(O)c(OC)c3)C2)ccc1O (stereo not drawn) showed an ED10 [1] of 2.9 mM.

Compound COc1cc(/C=C/c2cc(/C=C/c3cc(/N=N/c4ccc(Cl)cc4)c(O)c(OC)c3)n(CO)n2)cc(/N=N/c2ccc(Cl)cc2)c1O has an ED25 [1] of 3.6 mM.

In the case of COc1ccc(NN=C(C(=O)/C=C/c2ccc(O)c(OC)c2)C(=O)/C=C/c2ccc(O)c(OC)c2)cc1, the ED25 [1] is reported as 3.4 mM.

COc1cc(/C=C/C(=O)C(=NNc2ccc([N+](=O)[O-])cc2)C(=O)/C=C/c2ccc(O)c(OC)c2)ccc1O gave an ED10 [1] of 2.5 mM and an ED25 [1] of 2.8 mM.

Compound COc1cc(/C=C/C(=O)C(=NNc2ccc(C)cc2)C(=O)/C=C/c2ccc(O)c(OC)c2)ccc1O has an ED10 [1] of 2.4 mM.

COc1cc(/C=C/c2cc(/C=C/c3ccc(O)c(OC)c3)n(N=O)n2)ccc1O gave an ED25 [1] of 6.7 mM.

Compound COc1cc(C2C=C(C(=NNc3ccc([N+](=O)[O-])cc3)C3=CC(c4ccc(O)c(OC)c4)ON3)NO2)ccc1O (stereo not drawn) has an ED25 [1] of 5.3 mM.
